Assay results published in paper PMC7251097, “Aspartate/asparagine-β-hydroxylase: a high-throughput mass spectrometric assay for discovery of small molecule inhibitors” (Scientific Reports, 2020).
Counter-ions that a name gives are not always drawn. Like-named read-outs stand apart in the source and are kept apart here. Starred links: 1 amine or outer side, 2 acyl side, 3 side chain; linkers in the order of their positions; H or OH if unused. Non-standard residues stand in square brackets, D forms with d. Residues, ends and D or L forms follow the SMILES beside them. X1 = NCCCC[C@H](N)CN([C@@H](CCCCN)C(=O)[*:2])[*:1]; Tle = CC(C)(C)[C@H](N)C(=O)O

Target: T1, His6-AspH315–758 (human aspartate/asparagine-β-hydroxylase, AspH) (Homo sapiens, UniProt Q12797)
T1 construct: N-Terminally His6-tagged human AspH315–758 (His6-AspH315–758) was produced in E. coli BL21 (DE3) cells; made in house; host or cells: E. coli BL21 (DE3), pET-28a(+) vector
T1 sequence (Q12797 315-758): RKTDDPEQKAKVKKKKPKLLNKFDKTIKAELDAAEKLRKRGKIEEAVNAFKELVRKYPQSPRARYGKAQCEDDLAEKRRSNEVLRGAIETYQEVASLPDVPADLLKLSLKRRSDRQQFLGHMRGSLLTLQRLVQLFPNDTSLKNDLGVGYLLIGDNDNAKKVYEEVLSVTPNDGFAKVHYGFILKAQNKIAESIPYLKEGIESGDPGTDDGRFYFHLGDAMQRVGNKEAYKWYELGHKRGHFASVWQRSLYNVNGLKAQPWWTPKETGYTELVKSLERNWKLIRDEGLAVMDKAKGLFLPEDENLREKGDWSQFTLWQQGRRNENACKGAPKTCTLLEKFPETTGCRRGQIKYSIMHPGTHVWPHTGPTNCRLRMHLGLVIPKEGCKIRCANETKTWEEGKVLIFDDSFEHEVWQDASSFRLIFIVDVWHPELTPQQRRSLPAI
Assay: SPE-MS AspH inhibition assay (LOPAC screen at fixed 20 μM and IC50 dose-response), hydroxylation of cyclic peptide hFX-CP101–119
Type: biochemical

[1] = LOPAC Plate 4, compound at 20 uM, substrate conversion
[2] = LOPAC Plate 4, compound at 20 uM, read-out: % inhibition
[3] = LOPAC compound at 20uM, plate 2, conversion of substrate peptide
[4] = LOPAC compound at 20uM, plate 2, normalised to DMSO and 2,4-PDCA controls
[5] = LOPAC compound at fixed 20 uM, plate 1, normalised to DMSO and 2,4-PDCA controls
[6] = LOPAC compound at fixed 20 uM, substrate conversion, plate 1
[7] = LOPAC compound at 20uM, plate 3, conversion of substrate peptide
[8] = plate 5 (Pfitzer), test compounds at fixed 20 μM
[9] = plate 5 (Pfitzer), test compounds at fixed 20 μM, mean conversion DMSO 32.88
[10] = LOPAC Plate 4, compound at 20 uM
[11] = LOPAC compound at 20uM, plate 2, normalised to DMSO and 2,4-PDCA controls, read-out: Plate 2 (% inhibition)
[12] = AspH activity, fixed compound concentration 20 μM, initial LOPAC screen, 0.5%v/v DMSO

Cc1cccc(C#Cc2ccccc2)n1.Cl
Plate 3 (% conversion): 40.82%

C[C@H](O)C(=O)C1=Nc2c(nc(N)[nH]c2=O)NC1 [Sepiapterin]
% conversion [1]: 40.54%
inhibition at 20 µM [2]: -11.9%

O=C(O)CN(CCOCCOCCN(CC(=O)O)CC(=O)O)CC(=O)O [EGTA]
Plate 2 (% conversion) [3]: 38.29%
Plate 2 (% inhibition) [4]: -6.96%

C[N+](C)(C)CCCCCC[N+](C)(C)C.[Cl-].[Cl-] [Hexamethonium dichloride]
Plate 2 (% conversion): 37.53%
Plate 2 (% inhibition) (20 µM): -4.72%

OC[C@H]1O[C@@H](n2cnc3c(N[C@H]4CCC[C@@H]4O)ncnc32)[C@H](O)[C@@H]1O [GR 79236X]
Plate 1 (% inhibition) [5]: -7.17%
Plate 1 (% conversion) [6]: 38.28%

O=c1[nH]c2cc(C(F)(F)F)ccc2n1-c1cc(C(F)(F)F)ccc1O [NS-1619]
Plate 3 (% conversion) [7]: 36.56%

CN(C)CC/C=C1/c2ccccc2Sc2ccc(Cl)cc21 [Chlorprothixene hydrochloride]
Plate 1 (% inhibition) [5]: -27.95%
Plate 1 (% conversion) [6]: 45.26%

COc1ccc(/C=C/c2nc(NCCCN(C)C)c3ccccc3n2)cc1 [CP-31398]
Plate 5 (% conversion): 45.27%
Plate 5 (% inhibition): -26.30%

Cn1c(=O)c2[nH]cnc2n(C)c1=O [Theophylline]
% conversion: 39.26%
inhibition at 20 µM: -8.17%

Cc1c([N+](=O)[O-])cc2[nH]c(=O)c(=O)[nH]c2c1CN1CCCC1 [PD-161989]
Plate 5 (% inhibition) [8]: 16.45%
Plate 5 (% conversion) [9]: 30.72%

Cc1ccc(O)c(N=Nc2ccccc2)n1 [SIB 1757]
% conversion [1]: 30.83%

Nc1nc2c(ncn2[C@@H]2O[C@H](CO)[C@@H](O)[C@@H]2O)c(=O)[nH]1.O [Ara-G hydrate]
% inhibition [10]: -11.19%
% conversion [1]: 40.29%

COc1cccc2c1[C@@H]1CN(CCCCn3c(=O)[nH]c4c(sc5ncc(-c6ccccc6)nc54)c3=O)C[C@@H]1CO2 [Fiduxosin hydrochloride]
Plate 2 (% conversion) [3]: 64.73%
inhibition at 20 µM [11]: -85.9%

OC(CN1CCC(Cc2ccc(F)cc2)CC1)c1ccc(Cl)cc1 (centres unmarked) [Eliprodil]
Plate 2 (% conversion) [3]: 39.73%
inhibition at 20 µM [11]: -11.3%

Cc1cc(C2CCCCC2)n(O)c(=O)c1 [Ciclopirox olamine, reference compound]
IC50 (50 nM His6-AspH315–758, 1.0 μM hFX-CP101–119, 3 μM 2OG, 2 μM Fe(II), 50 mM HEPES pH 7.5, 20 °C, mean ± SD, n = 2 (2,4-PDCA n = 10), read-out: IC50): 4.39 ± 0.71 µM

CCN(CC)CCNC(=O)c1c(C)[nH]c(/C=C2\C(=O)Nc3ccc(F)cc32)c1C [Sunitinib]
Plate 5 (% inhibition) [8]: 67.34%
Plate 5 (% conversion) [9]: 13.39%

Nc1nc(N)c2nc(-c3ccccc3)c(N)nc2n1 [Triamterene]
% conversion [1]: 36.11%

c1ccc2cc(-c3ncc[nH]3)ccc2c1 [Benazoline oxalate]
Plate 1 (% inhibition) [5]: 77.21%
Plate 1 (% conversion) [6]: 9.94%

Cc1[nH]c2ccc(O)cc2c1CCN.O=C(O)/C=C\C(=O)O [2-Methyl-5-hydroxytryptamine maleate]
Plate 3 (% conversion): 35.71%

O=C(O)CP(=O)(O)O [Phosphonoacetic acid]
% conversion [1]: 17.53%
inhibition at 20 µM [2]: 55.5%

O=C1c2c(O)cc(O)cc2O[C@H](c2ccc(O)c(O)c2)[C@H]1O (racemic) [(±)-Taxifolin, reference compound]
Inhibition at 20 µM [%] [12]: 97.5%
% conversion [1]: 3.21%

Br.C=CCN1CCc2c(cc(O)c(O)c2Br)[C@@H](c2ccccc2)C1 [R(+)-6-Bromo-APB hydrobromide, reference compound]
Inhibition at 20 µM [%] [12]: 95.0%
Plate 1 (% inhibition) [5]: 95.00%
Plate 1 (% conversion) [6]: 3.97%

CN(C)CC[C@@H](c1ccc(Br)cc1)c1ccccn1 [(+)-Brompheniramine maleate]
Plate 1 (% inhibition) [5]: 1.01%
Plate 1 (% conversion) [6]: 35.53%

CCOC(=O)[C@H](CC(C)C)NC(=O)[C@@H](NC(=O)[C@H](Cc1c[nH]c2ccccc12)NC(=O)[C@@H]1CCCN1C(=O)[C@H](CCCCN)NC[C@@H](N)CCCCN)C(C)(C)C [PD-149163] (H-[X1]PW[Tle]L-OEt)
Plate 5 (% inhibition) [8]: -16.72%
Plate 5 (% conversion) [9]: 42.01%

CCCCCN(C)CCC(O)(P(=O)([O-])O)P(=O)(O)O.[Na+] [Ibandronate sodium]
% conversion [1]: 30.05%

N#CC(C#N)=C(N)/C(C#N)=C/c1ccc(O)cc1 [Tyrphostin AG 112]
% inhibition [10]: -1.91%
% conversion [1]: 37.12%

Phenylbenzene-omega-phosphono-alpha-amino acid
% conversion: 25.21%

NS(=O)(=O)c1cccc2c1c([N+](=O)[O-])cc1nc([O-])c([O-])nc12.[Na+].[Na+] [NBQX disodium]
Plate 3 (% conversion) [7]: 7.99%

Cl.NOCC(=O)O.NOCC(=O)O
Plate 1 (% inhibition) [5]: -6.07%
Plate 1 (% conversion) [6]: 37.91%

CC(=N)NCCCC[C@H](N)C(=O)O.Cl [L-N6-(1-Iminoethyl)lysine hydrochloride]
Plate 3 (% conversion) [7]: 40.67%

CNc1cc(NS(=O)(=O)c2ccc(N)cc2)nc(NC)n1.Cl.Cl [Ro 04-6790 dihydrochloride]
% inhibition [10]: 35.85%
% conversion [1]: 24.24%

CC(C)Oc1cccnc1N(C)C1CCN(Cc2ccccc2)CC1.O=C(O)/C=C\C(=O)O [U-101958 maleate]
% conversion [1]: 35.76%

CC(C(=O)O)c1cccc(C(=O)c2ccccc2)c1 (centres unmarked) [Ketoprofen]
Plate 3 (% conversion) [7]: 34.58%

CC(C)NCC(O)c1ccc(O)c(O)c1.Cl (single isomer, unassigned; (-)) [(-)-Isoproterenol hydrochloride]
Plate 3 (% conversion) [7]: 6.03%

O=C(c1ccc(OCCN2CCCCC2)cc1)c1c(-c2ccc(O)cc2)sc2cc(O)ccc12 [Raloxifene hydrochloride]
% conversion [1]: 40.15%
inhibition at 20 µM [2]: -10.8%

O=c1ccc2ccc(O)c(O)c2o1 [Daphnetin, reference compound]
inhibition at 20 µM (AspH activity, fixed compound concentration 20 μM, initial LOPAC screen, 0.5%v/v DMSO, read-out: Inhibition at 20 µM [%]): 98.5%

CCN1C[C@]2(COC)[C@H](O)C[C@H](OC)[C@@]34[C@@H]5C[C@@]6(O)[C@H](OC(=O)c7ccccc7)[C@@H]5[C@@](OC(C)=O)([C@@H]([C@H](OC)[C@H]23)[C@@H]14)[C@@H](O)[C@@H]6OC [Aconitine]
Plate 1 (% conversion): 40.69%
Plate 1 (% inhibition): -14.35%

CCCn1c(=O)c2[nH]c(-c3ccc(S(=O)(=O)O)cc3)nc2n(CCC)c1=O [1,3-Dipropyl-8-p-sulfophenylxanthine]
Plate 1 (% inhibition) [5]: -2.36%
Plate 1 (% conversion) [6]: 36.66%

Br.Br.CN(C)CCCc1cc(C(=O)Nc2ccc(-c3ccncc3)cc2)ccc1O [GR 55562 dihydrobromide]
Plate 2 (% conversion) [3]: 31.31%
Plate 2 (% inhibition) [4]: 13.87%

CC(NCCc1ccc(O)cc1)C(O)c1ccc(O)cc1 (centres unmarked) [Ritodrine hydrochloride]
% conversion [1]: 37.24%
inhibition at 20 µM [2]: -2.24%

CN(C)c1ccc(O)c2c1C[C@H]1C[C@H]3[C@H](N(C)C)C(O)=C(C(N)=O)C(=O)[C@@]3(O)C(O)=C1C2=O [Minocycline hydrochloride]
Plate 3 (% conversion) [7]: 8.64%

N[C@@H](Cn1oc(=O)[nH]c1=O)C(=O)O [(+)-Quisqualic acid]
% conversion: 34.23%

NC(=Nc1ccccc1)NC(=O)c1nc(Cl)c(N)nc1N [Phenamil methanesulfonate]
% conversion [1]: 39.99%
inhibition at 20 µM [2]: -10.3%

O=C1NC(=O)c2cc(Nc3ccccc3)c(Nc3ccccc3)cc21 [DAPH]
Plate 1 (% inhibition) [5]: -7.17%
Plate 1 (% conversion) [6]: 38.28%

C#CCN(C)Cc1ccccc1 [Pargyline hydrochloride]
% conversion [1]: 31.34%

CC(O)(CS(=O)(=O)c1ccc(F)cc1)C(=O)Nc1ccc(C#N)c(C(F)(F)F)c1 (centres unmarked) [Bicalutamide (CDX)]
% conversion [1]: 24.70%

(+)-Cyclazocine
Plate 2 (% conversion): 35.78%
Plate 2 (% inhibition) (20 µM): 0.54%
